Source: patent US7022733B2, “Substituted 2-phenyl benzofurans as estrogenic agents” (Wyeth, priority 2001, dated 2006)

How the values were obtained:
[1] = system: metallothionein-II mRNA in Saos-2 cells; assay: Regulation of metallothionein-II mRNA in Saos-2 cells; format: cell-based; details: Homo sapiens

Row | melting point | SMILES | fold induction at 1 µM [1]
1 | – | Oc1ccc(-c2cc3cc(O)ccc3o2)c(-c2ccccc2)c1 [Example 103, 2-(5-Hydroxy-biphenyl-2-yl)-benzofuran-5-ol] | 9
2 | 248 to 250 °C | OCc1ccc2oc(-c3ccc(O)cc3)cc2c1 [Example 144, 4-(5-Hydroxymethyl-benzofuran-2-yl)-phenol] | –
